# Measurements reported in article PMC10139140, “Synthesis of Novel 2-(Cyclopentylamino)thiazol-4(5H)-one Derivatives with Potential Anticancer, Antioxidant, and 11β-HSD Inhibitory Activities” (International Journal of Molecular Sciences, 2023).
# How the values were obtained:
# 11β-HSD1 = target: T1, 11β-HSD1 (Homo sapiens, UniProt P28845); experiment: Inhibition of 11β-HSD1 (cortisone to cortisol, human liver microsomes, cortisol ELISA); format: biochemical; conditions: for inhibition at 10 µM: 2.5 h, 37 °C
# T1 construct: Human liver microsomes were used as a source of 11β-HSD1 enzyme; tissue XenoTech Lot No. 1410013; host or cells: pooled human liver microsomes, mixed gender
# Experimental: The resulting solution with a final volume of 100 µL was incubated for 2.5 h at 37 °C. To stop the reaction, 10 µL of a 100 µM solution of 18β-glycyrrhetinic acid in PBS was added. The level of cortisol obtained in the reaction was measured by commercially available ELISA kit.
# As a control, analogous tests without the addition of inhibitors were used. Half the inhibitory concentration (causing 50% reduction of cortisol or cortisone) was read from the chart.
# 11β-HSD2 = target: T2, 11β-HSD2 (Homo sapiens, UniProt P80365); experiment: Inhibition of 11β-HSD2 (cortisol to cortisone, human microsomes, cortisol ELISA); format: biochemical; conditions: 2.5 h, 37 °C
# T2 construct: Human liver microsomes were used as a source of 11β-HSD2 enzyme; tissue XenoTech Lot No. 1710160; host or cells: human kidney microsomes, mixed gender (method text says human liver microsomes)
# T2 sequence (P80365 1-405): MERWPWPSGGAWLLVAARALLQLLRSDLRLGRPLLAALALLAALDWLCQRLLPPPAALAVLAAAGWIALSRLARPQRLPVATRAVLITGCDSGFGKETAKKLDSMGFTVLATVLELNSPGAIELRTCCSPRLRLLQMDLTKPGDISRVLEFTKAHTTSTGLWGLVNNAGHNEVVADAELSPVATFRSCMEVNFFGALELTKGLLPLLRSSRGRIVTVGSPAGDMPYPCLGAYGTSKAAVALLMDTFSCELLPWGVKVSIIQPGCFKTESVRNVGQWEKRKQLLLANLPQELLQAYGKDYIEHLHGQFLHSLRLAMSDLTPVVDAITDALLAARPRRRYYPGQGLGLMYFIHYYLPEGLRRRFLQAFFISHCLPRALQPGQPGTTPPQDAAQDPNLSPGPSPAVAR
# Experimental: The resulting solution with a final volume of 100 µL was incubated for 2.5 h at 37 °C. […] The level of unreacted cortisol was measured by a commercially available ELISA kit.
# BJ cells = experiment: MTS metabolic activity assay, BJ cells; format: cell-based; conditions: Homo sapiens, 72 h, read-out: Cell metabolic activity (MTS), % of untreated control
# Experimental: (§1) The BJ (CRL-2522), Caco-2 (HTB-37), PANC-1 (CRL-1469), U-118 MG (HTB-15), SK-MEL-30 (ACC 151), and MDA-MB-231 (HTB-26) cell lines were purchased from ATCC (Manassas, VA, USA) or DSMZ (Braunschweig, GERMANY). Cells were cultured in accordance with manufacturers' recommendations in a DMEM, MEM, or RPMI-1640 (Sigma, Saint Louis, MO, USA; Gibco, Waltham, MA, USA), supplemented with 10% FBS, except for Caco-2 (20%) (Thermo Fisher Scientific, Waltham, MA, USA) and 1% antibiotic mix solution (penicillin, streptomycin; Thermo Fisher Scientific, Waltham, MA, USA) in a humidified atmosphere with 5% CO2 at 37 °C. All cell lines were cultured in T75 cell culture flasks or cell culture dishes to reach 80–90% confluency and seeded at a standard density of 5 × 10^3 cells/0.32 cm^2, except for BJ cells at 2 × 10^3 cells/0.32 cm^2.
# (§2) The MTS ((MTS: 3-(4,5-dimethylthiazol-2-yl)-5-(3-carboxymethoxyphenyl)-2-(4-sulfophenyl)-2H-tetrazolium)) assay was performed following previously reported method. Briefly, cells were seeded at a standard density into 96-well flat-bottom plates and incubated for 24 h, followed by the treatment. The various concentrations of compounds were prepared and treated for the next 72 h. MTS solution was added for 3h and incubated at standard conditions, protected from light. Finally, the absorbance was read at […] and 620 nm wavelengths using a Synergy H1 microplate reader (BioTek, Santa Clara, CA, USA). The results are presented as %, while untreated control cells were considered 100%.
# [1] = test system: human colon carcinoma (Caco-2); experiment: MTS metabolic activity assay, Caco-2 cells; format: cell-based; conditions: Homo sapiens, 72 h, read-out: Cell metabolic activity (MTS), % of untreated control; for viability at 10 µM: Caco-2, 10 µM; for viability at 20 µM: Caco-2, 20 µM; for viability at 50 µM: Caco-2, 50 µM; for viability at 100 µM: Caco-2, 100 µM; for viability at 200 µM: Caco-2, 200 µM; for viability at 300 µM: Caco-2, 300 µM; for viability at 500 µM: Caco-2, 500 µM
# Experimental: as §1, §2
# [2] = test system: human pancreatic carcinoma (PANC-1); experiment: MTS metabolic activity assay, PANC-1 cells; format: cell-based; conditions: Homo sapiens, 72 h, read-out: Cell metabolic activity (MTS), % of untreated control; for viability at 10 µM: PANC-1, 10 µM; for viability at 20 µM: PANC-1, 20 µM; for viability at 50 µM: PANC-1, 50 µM; for viability at 100 µM: PANC-1, 100 µM; for viability at 200 µM: PANC-1, 200 µM; for viability at 300 µM: PANC-1, 300 µM; for viability at 500 µM: PANC-1, 500 µM
# Experimental: as §1, §2
# glioma (U-118 MG) = experiment: MTS metabolic activity assay, U-118 MG cells; format: cell-based; conditions: 72 h; for viability at 10 µM / viability at 20 µM / viability at 50 µM / viability at 100 µM / viability at 200 µM / viability at 300 µM / viability at 500 µM: Homo sapiens, U-118-MG, U118-MG, read-out: Cell metabolic activity (MTS), % of untreated control
# Experimental: as §1, §2
# [3] = test system: skin melanoma (SK-MEL-30); experiment: MTS metabolic activity assay, SK-MEL-30 cells; format: cell-based; conditions: 72 h; for viability at 10 µM / viability at 20 µM / viability at 50 µM / viability at 100 µM / viability at 200 µM / viability at 300 µM / viability at 500 µM: Homo sapiens, read-out: Cell metabolic activity (MTS), % of untreated control; for viability at 10 µM: SK-MEL-30, 10 µM; for viability at 20 µM: SK-MEL-30, 20 µM; for viability at 50 µM: SK-MEL-30, 50 µM; for viability at 100 µM: SK-MEL-30, 100 µM; for viability at 200 µM: SK-MEL-30, 200 µM; for viability at 300 µM: SK-MEL-30, 300 µM; for viability at 500 µM: SK-MEL-30, 500 µM
# Experimental: as §1, §2
# [4] = test system: human breast carcinoma (MDA-MB-231); experiment: MTS metabolic activity assay, MDA-MB-231 cells; format: cell-based; conditions: 72 h; for viability at 10 µM / viability at 20 µM / viability at 50 µM / viability at 100 µM / viability at 200 µM / viability at 300 µM / viability at 500 µM: Homo sapiens, read-out: Cell metabolic activity (MTS), % of untreated control; for viability at 10 µM: MDA-MB-231, 10 µM; for viability at 20 µM: MDA-MB-231, 20 µM; for viability at 50 µM: MDA-MB-231, 50 µM; for viability at 100 µM: MDA-MB-231, 100 µM; for viability at 200 µM: MDA-MB-231, 200 µM; for viability at 300 µM: MDA-MB-231, 300 µM; for viability at 500 µM: MDA-MB-231, 500 µM
# Experimental: as §1, §2
# T1 sequence (P28845 whole entry): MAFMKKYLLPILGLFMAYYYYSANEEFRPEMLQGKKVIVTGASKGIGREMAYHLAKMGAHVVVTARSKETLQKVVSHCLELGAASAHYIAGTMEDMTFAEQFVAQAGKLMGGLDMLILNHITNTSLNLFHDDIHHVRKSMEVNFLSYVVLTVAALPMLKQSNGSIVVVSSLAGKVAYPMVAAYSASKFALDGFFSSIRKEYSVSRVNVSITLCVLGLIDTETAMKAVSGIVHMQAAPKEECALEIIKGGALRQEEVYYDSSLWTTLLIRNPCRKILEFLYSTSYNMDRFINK
smiles,measurement,setting,value
"CCCC1SC(NC2CCCC2)=NC1=O (stereo not drawn) [Compound 3c, 2-(cyclopentylamino)-5-propylthiazol-4(5H)-one]",IC50,11β-HSD1,2750 ± 120 nM
same,inhibition at 10 µM,11β-HSD1,56.6 ± 6.11%
same,inhibition at 10 µM,11β-HSD2,37.7 ± 6.07%
same,viability at 10 µM,BJ cells,98.2%
same,viability at 20 µM,BJ cells,99.7%
same,viability at 50 µM,BJ cells,102%
same,viability at 100 µM,BJ cells,108%
same,viability at 200 µM,BJ cells,112%
same,viability at 300 µM,BJ cells,111%
same,viability at 500 µM,BJ cells,115%
same,viability at 10 µM,[1],88.1%
same,viability at 20 µM,[1],86.6%
same,viability at 50 µM,[1],87.6%
same,viability at 100 µM,[1],82%
same,viability at 200 µM,[1],86.1%
same,viability at 300 µM,[1],83.1%
same,viability at 500 µM,[1],68.5%
same,viability at 10 µM,[2],108%
same,viability at 20 µM,[2],106%
same,viability at 50 µM,[2],112%
same,viability at 100 µM,[2],114%
same,viability at 200 µM,[2],116%
same,viability at 300 µM,[2],115%
same,viability at 500 µM,[2],122%
same,viability at 10 µM,glioma (U-118 MG),111%
same,viability at 20 µM,glioma (U-118 MG),110%
same,viability at 50 µM,glioma (U-118 MG),110%
same,viability at 100 µM,glioma (U-118 MG),114%
same,viability at 200 µM,glioma (U-118 MG),113%
same,viability at 300 µM,glioma (U-118 MG),112%
same,viability at 500 µM,glioma (U-118 MG),112%
same,viability at 10 µM,[3],101%
same,viability at 20 µM,[3],102%
same,viability at 50 µM,[3],101%
same,viability at 100 µM,[3],101%
same,viability at 200 µM,[3],95.9%
same,viability at 300 µM,[3],75%
same,viability at 500 µM,[3],45.5%
same,"cell viability, decreases to","[3]; SK-MEL-30, higher concentrations, range given for the most effective substances together",20–65%
same,viability at 10 µM,[4],101%
same,viability at 20 µM,[4],102%
same,viability at 50 µM,[4],99.1%
same,viability at 100 µM,[4],97.4%
same,viability at 200 µM,[4],88.4%
same,viability at 300 µM,[4],75.9%
same,viability at 500 µM,[4],55%
same,"cell viability, decreases to","[4]; MDA-MB-231, higher concentrations, range given for the most effective substances together",20–65%
"CC(C)C1SC(NC2CCCC2)=NC1=O (stereo not drawn) [Compound 3d, 2-(cyclopentylamino)-5-isopropylthiazol-4(5H)-one]",IC50,11β-HSD1,460 ± 70 nM
same,inhibition at 10 µM,11β-HSD1,82.9 ± 2.62%
same,inhibition at 10 µM,11β-HSD2,38.6 ± 3.69%
same,viability at 10 µM,BJ cells,109%
same,viability at 20 µM,BJ cells,106%
same,viability at 50 µM,BJ cells,109%
same,viability at 100 µM,BJ cells,110%
same,viability at 200 µM,BJ cells,116%
same,viability at 300 µM,BJ cells,118%
same,viability at 500 µM,BJ cells,118%
same,viability at 10 µM,[1],88.8%
same,viability at 20 µM,[1],82.8%
same,viability at 50 µM,[1],90.8%
same,viability at 100 µM,[1],83.1%
same,viability at 200 µM,[1],84.8%
same,viability at 300 µM,[1],85.3%
same,viability at 500 µM,[1],70.1%
same,viability at 10 µM,[2],107%
same,viability at 20 µM,[2],103%
same,viability at 50 µM,[2],105%
same,viability at 100 µM,[2],116%
same,viability at 200 µM,[2],113%
same,viability at 300 µM,[2],119%
same,viability at 500 µM,[2],118%
same,viability at 10 µM,glioma (U-118 MG),118%
same,viability at 20 µM,glioma (U-118 MG),111%
same,viability at 50 µM,glioma (U-118 MG),114%
same,viability at 100 µM,glioma (U-118 MG),112%
same,viability at 200 µM,glioma (U-118 MG),114%
same,viability at 300 µM,glioma (U-118 MG),115%
same,viability at 500 µM,glioma (U-118 MG),120%
same,highest increase in proliferation (cell metabolic activity),"glioma (U-118 MG); U-118 MG, range given for the named substances together",115 to 144%
same,viability at 10 µM,[3],97.2%
same,viability at 20 µM,[3],97.1%
same,viability at 50 µM,[3],97.7%
same,viability at 100 µM,[3],102%
same,viability at 200 µM,[3],92.3%
same,viability at 300 µM,[3],78.2%
same,viability at 500 µM,[3],59.4%
same,viability at 10 µM,[4],92.8%
same,viability at 20 µM,[4],91.2%
same,viability at 50 µM,[4],95.5%
same,viability at 100 µM,[4],94.4%
same,viability at 200 µM,[4],86.6%
same,viability at 300 µM,[4],81.8%
same,viability at 500 µM,[4],57.6%
